Measurements published in patent US8168647B2, “Vinblastine derivatives, their preparation, use and pharmaceutical compositions comprising the said derivatives” (Shanghai Institute of Materia Medica Chinese Academy of …, priority 2007, dated 2012).
Structures can show the parent of a compound that is named as a salt. Where two headings read alike, the source gives them in different places. Marks after values point to notes of the source that are not given here.

Columns and labels:
[1] = test system: human non-small cell lung cancer cell line A-549; test: In vitro cytotoxicity assay, Sulforhodamine B (SRB), A-549; type: cell-based
[2] = test system: human non-small cell lung cancer (A549) xenografts; test: Nude mice models bearing human non-small cell lung cancer (A549) xenografts; conditions: for efficacy against A549 xenografts (in words) / toxicity in the mice (in words): iv
[3] = test system: human cervical carcinoma cell line Hela; test: In vitro cytotoxicity assay, Sulforhodamine B (SRB), Hela; type: cell-based
sarcoma 180 = test: In vivo antitumor assay on Sarcoma 180 (S180) in mice; conditions: for inhibition in vivo at 10 mg/kg / inhibition in vivo at 20 mg/kg / inhibition in vivo at 40 mg/kg: Mus musculus, Sarcoma-180, iv
[4] = test system: human non-small cell lung cancer (A549) xenografts; conditions: mouse, in vivo
[5] = depending on its concentration and action time; read-out: IC50, in vitro activity; cited from earlier work
[6] = Homo sapiens, A549, 72 h, read-out: A549 (IC50, nM)
[7] = 1.5 mg/kg iv once at d0, dn: 12 days after the first administration
[8] = 3 mg/kg iv once at d0, dn: 12 days after the first administration
[9] = 6 mg/kg iv once at d0, dn: 12 days after the first administration
[10] = BM48 tartrate once at d0, vinorelbine tartrate twice at d0 and d4
[11] = Homo sapiens, HeLa, 72 h, read-out: Hela (IC50, nM)
[12] = read-out: Inhibition rate %, 10 mg/kg, iv, d 1, 4
[13] = read-out: Inhibition rate %, 20 mg/kg, iv d 1
[14] = read-out: Inhibition rate %, 20 mg/kg, iv, d 1, 4
[15] = read-out: Inhibition rate %, 40 mg/kg, iv, d 1, 4

SMILES | cell-based efficacy, inhibition of tumor cell proliferation (in words) [1] | IC50 [1, 6] | IC50 [3, 11] | Average weight (g) At sacrifice (sarcoma 180; 10 mg/kg, iv, d 1, 4) | Tumor Weight (g) X ± SD (sarcoma 180; 10 mg/kg, iv, d 1, 4) | inhibition in vivo at 10 mg/kg (sarcoma 180; [12]) | Average weight (g) At sacrifice (sarcoma 180; 20 mg/kg, iv, d 1, 4) | Tumor Weight (g) X ± SD (sarcoma 180; 20 mg/kg, iv, d 1, 4) | Average weight (g) At sacrifice (sarcoma 180; 40 mg/kg, iv, d 1, 4) | Tumor Weight (g) X ± SD (sarcoma 180; 40 mg/kg, iv, d 1, 4) | inhibition in vivo at 20 mg/kg (sarcoma 180; [14]) | inhibition in vivo at 40 mg/kg (sarcoma 180; [15]) | also measured
CCC1=C[C@@H]2CN(CCc3c([nH]c4ccccc34)[C@@](C(=O)OC)(c3cc4c(cc3OC)N(C)[C@H]3C(O)(CNC(=O)OC)[C@H](OC(C)=O)[C@]5(CC)C=CCN6CC[C@]43[C@@H]65)C2)C1 (some centres unmarked) [BM48] | excellent cell-based efficacy | 75.3 nM | 34.8 nM | 27.1 g | 0.85 ± 0.11 g | 46.9% |  |  |  |  |  |  | T/C (%) ([2]; 1.5 mg/kg iv once at d0): 74.0%; Body weight (g) dn [2, 7]: 21.3 g; TV (mm^3) x ± SD dn [2, 7]: 2080 ± 542 mm^3; RTV x ± SD ([2]; 1.5 mg/kg iv once at d0, relative tumor volume): 8.18 ± 2.20; T/C (%) ([2]; 3 mg/kg iv once at d0): 62.9* %; Body weight (g) dn [2, 8]: 20.4 g; TV (mm^3) x ± SD dn [2, 8]: 1545 ± 410 mm^3; RTV x ± SD ([2]; 3 mg/kg iv once at d0, relative tumor volume): 6.96 ± 1.79; T/C (%) ([2]; 6 mg/kg iv once at d0): 31.5* %; Body weight (g) dn [2, 9]: 18.8 g; TV (mm^3) x ± SD dn [2, 9]: 808 ± 336 mm^3; RTV x ± SD ([2]; 6 mg/kg iv once at d0, relative tumor volume): 3.48 ± 1.83; efficacy against A549 xenografts (in words) [2, 10]: significantly inhibited; toxicity in the mice (in words) [2, 10]: appeared to show toxicity after the administration of BM48, but could recover well later; efficacy against A549 xenografts (in words) ([2]; BM48 tartrate once at d0, vinorelbine tartrate twice at d0 and d4, listed as BM48 tartrate): comparable to or even a little better than vinorelbine tartrate; Average weight (g) At sacrifice (sarcoma 180; 20 mg/kg, iv d 1): 24.2 g; Tumor Weight (g) X ± SD (sarcoma 180; 20 mg/kg, iv d 1): 0.35 ± 0.03 g; inhibition in vivo at 20 mg/kg (sarcoma 180; [13]): 78.1%
CCC1=C[C@@H]2CN(CCc3c([nH]c4ccccc34)[C@@](C(=O)OC)(c3cc4c(cc3OC)N(C)[C@H]3C(O)(CNC(=O)OCC(C)C)[C@H](OC(C)=O)[C@]5(CC)C=CCN6CC[C@]43[C@@H]65)C2)C1 (some centres unmarked) [BM53] | excellent cell-based efficacy | 13.7 nM | 7.1 nM | 25.4 g | 0.24 ± 0.09 g | 85% |  |  |  |  |  |  | 
CC[C@]12C=CCN3CC[C@@]4(c5cc([C@@]6(C(=O)OC)C[C@@H]7C[C@@H](C(C)(F)F)CN(CCc8c6[nH]c6ccccc86)C7)c(OC)cc5N(C)[C@H]4C(O)(CNC(=O)OCC(C)C)[C@@H]1OC(C)=O)[C@@H]32 (some centres unmarked) [BM80] |  | > 1000 nM | > 1000 nM |  |  |  | 34.5 g | 1.55 ± 0.34 g | 32.5 g | 1.58 ± 0.12 g | 3.1% | 1.2% | 
CC[C@]12C=CCN3CC[C@@]4(c5cc([C@@]6(C(=O)OC)C[C@@H]7C[C@@H](C(C)(F)F)CN(CCc8c6[nH]c6ccccc86)C7)c(OC)cc5N(C)[C@H]4C(O)(COC(C)=O)[C@@H]1OC(C)=O)[C@@H]32 (some centres unmarked) [BM75] |  | > 1000 nM | > 1000 nM |  |  |  | 30.9 g | 1.53 ± 0.56 g | 33.3 g | 1.85 ± 0.32 g | 4.4% | 0% | 
CCC(=O)NCC1(O)[C@H](OC(C)=O)[C@]2(CC)C=CCN3CC[C@@]4(c5cc([C@@]6(C(=O)OC)C[C@@H]7C=C(CC)CN(CCc8c6[nH]c6ccccc86)C7)c(OC)cc5N(C)[C@@H]14)[C@@H]32 (some centres unmarked) [BM27] | excellent cell-based efficacy | 42.9 nM | 13.4 nM | 21.4 g | 0.25 ± 0.06 g | 84.4% |  |  |  |  |  |  | Average weight (g) At sacrifice (sarcoma 180; 20 mg/kg, iv d 1): 20.7 g; Tumor Weight (g) X ± SD (sarcoma 180; 20 mg/kg, iv d 1): 0.16 ± 0.03 g; inhibition in vivo at 20 mg/kg (sarcoma 180; [13]): 90%
CCC1=C[C@@H]2CN(CCc3c([nH]c4ccccc34)[C@@](C(=O)OC)(c3cc4c(cc3OC)N(C)[C@H]3C(O)(CNC(=O)c5ccc6c(c5)OCO6)[C@H](OC(C)=O)[C@]5(CC)C=CCN6CC[C@]43C65)C2)C1 (some centres unmarked) [BM47] | excellent cell-based efficacy | 14.4 nM | 19 nM | 25.3 g | 0.67 ± 0.07 g | 58.1% |  |  |  |  |  |  | Average weight (g) At sacrifice (sarcoma 180; 20 mg/kg, iv d 1): 23.3 g; Tumor Weight (g) X ± SD (sarcoma 180; 20 mg/kg, iv d 1): 0.54 ± 0.17 g; inhibition in vivo at 20 mg/kg (sarcoma 180; [13]): 66.3%
CCC(=O)NCC1(O)[C@H](OC(C)=O)[C@]2(CC)C=CCN3CC[C@@]4(c5cc([C@@]6(C(=O)OC)C[C@@H]7C[C@@H](C(C)(F)F)CN(CCc8c6[nH]c6ccccc86)C7)c(OC)cc5N(C)[C@@H]14)[C@@H]32 (some centres unmarked) [BM78] |  | > 1000 nM | > 1000 nM |  |  |  | 30.1 g | 0.76 ± 0.29 g | 29.0 g | 0.36 ± 0.11 g | 52.5% | 77.5% | Average weight (g) At sacrifice (sarcoma 180; 40 mg/kg, iv d 1): 28.8 g; Tumor Weight (g) X ± SD (sarcoma 180; 40 mg/kg, iv d 1): 0.48 ± 0.15 g; inhibition in vivo at 40 mg/kg (sarcoma 180; read-out: Inhibition rate %, 40 mg/kg, iv d 1): 70%; antitumor activity in vivo (in words) (sarcoma 180; S180 in mice, iv): strong antitumor activity in vivo
CC[C@]12C=CCN3CC[C@@]4(c5cc([C@@]6(C(=O)OC)C[C@@H]7C[C@@H](C(C)(F)F)CN(CCc8c6[nH]c6ccccc86)C7)c(OC)cc5N(C)[C@H]4C(O)(CNC(=O)OC)[C@@H]1OC(C)=O)[C@@H]32 (some centres unmarked) [BM79] |  | > 1000 nM | > 1000 nM |  |  |  | 33.0 g | 1.47 ± 0.15 g | 29.5 g | 0.84 ± 0.49 g | 8.1% | 47.5% | 
CCC1=C[C@@H]2CN(CCc3c([nH]c4ccccc34)[C@@](C(=O)OC)(c3cc4c(cc3OC)N(C)[C@H]3[C@@](O)(C(=O)OC)[C@H](OC(C)=O)[C@]5(CC)C=CCN6CC[C@]43[C@@H]65)C2)C1 [Anhydrovinblastine tartrate, anhydrovinblastine tartrate, reference compound] |  |  |  | 27.9 g | 0.49 ± 0.10 g |  |  |  |  |  |  |  | IC50 ([1]; SRB assay, 72 hours incubation, ditartrate of all compounds used, read-out: A549 (IC50)): 60.2 nM; IC50 ([3]; SRB assay, 72 hours incubation, ditartrate of all compounds used, read-out: Hela (IC50)): 40.2 nM; Inhibition rate % (sarcoma 180; 10 mg/kg, iv, d 1, 4): 69.4* %
CCC1=C[C@@H]2CN(C1)Cc1c([nH]c3ccccc13)[C@@](C(=O)OC)(c1cc3c(cc1OC)N(C)[C@H]1[C@@](O)(C(=O)OC)[C@H](OC(C)=O)[C@]4(CC)C=CCN5CC[C@]31[C@@H]54)C2 [Vinorelbine tartrate, vinorelbine tartrate, reference compound] |  |  |  | 27.5 g | 0.60 ± 0.23 g |  |  |  |  |  |  |  | Body weight (g) dn [4]: 16.4 g; IC50 ([1]; Homo sapiens, A549, SRB assay, 72 hours incubation, ditartrate of all compounds used, read-out: A549 (IC50)): 23.1 nM; toxicity in the mice (in words) [2, 10]: higher toxicity; RTV x ± SD ([2]; mouse, in vivo): 2.66 ± 1.18; T/C (%) ([2]; mouse, in vivo): 24.1* %; TV (mm^3) x ± SD dn ([2]; mouse, in vivo): 550 ± 206 mm^3; efficacy against A549 xenografts (in words) ([2]; mouse, in vivo): a little better efficacy than BM48 tartrate; IC50 ([3]; Homo sapiens, HeLa, SRB assay, 72 hours incubation, ditartrate of all compounds used, read-out: Hela (IC50)): 9.1 nM; inhibition in vivo at 10 mg/kg (sarcoma 180; read-out: Inhibition rate %): 62.5%
CC[C@]12C=CCN3CC[C@@]4(c5cc([C@@]6(C(=O)OC)C[C@@H]7C[C@@H](C(C)(F)F)CN(Cc8c6[nH]c6ccccc86)C7)c(OC)cc5N(C)[C@H]4[C@@](O)(C(=O)OC)[C@@H]1OC(C)=O)[C@@H]32 [Vinflunine, reference compound] |  |  |  |  |  |  |  |  | 28.4 g | 0.44 ± 0.13 g |  | 72.5% | IC50 [5]: 60 to 300 nM
CCC1=C[C@@H]2CN(CCc3c([nH]c4ccccc34)[C@@](C(=O)OC)(c3cc4c(cc3OC)N(C)[C@H]3C(O)(CNC(=O)OCC5CC5)[C@H](OC(C)=O)[C@]5(CC)C=CCN6CC[C@]43[C@@H]65)C2)C1 (some centres unmarked) [BM57] | excellent cell-based efficacy | 60.6 nM | 13.2 nM | 25.2 g | 0.26 ± 0.07 g | 83.8% |  |  |  |  |  |  | 
